Reference: patent publication US20120122860A1, “SOLID FORMS OF SULFONAMIDES AND AMINO ACIDS” (Plexxikon, Inc., priority 2009, published 2012)

How the values were obtained:
Flt1 = Flt1 (Homo sapiens, UniProt P17948); experiment: Kinase activity assay, Flt1
C-Raf = C-Raf (Homo sapiens, UniProt P04049); experiment: Kinase activity assay, C-Raf
B-Raf = B-Raf (Homo sapiens, UniProt P15056); experiment: Kinase activity assay, B-Raf; type: biochemical; conditions: read-out: activity toward kinase B-Raf, IC50
Src = Src (Homo sapiens, UniProt P12931); experiment: Kinase activity assay, Src
Kdr = Kdr (Homo sapiens, UniProt P35968); experiment: Kinase activity assay, Kdr
A-Raf = biological target: T1, A-Raf (Homo sapiens, UniProt P10398); experiment: Kinase activity assay, A-Raf
T1 sequence (P10398 1-606): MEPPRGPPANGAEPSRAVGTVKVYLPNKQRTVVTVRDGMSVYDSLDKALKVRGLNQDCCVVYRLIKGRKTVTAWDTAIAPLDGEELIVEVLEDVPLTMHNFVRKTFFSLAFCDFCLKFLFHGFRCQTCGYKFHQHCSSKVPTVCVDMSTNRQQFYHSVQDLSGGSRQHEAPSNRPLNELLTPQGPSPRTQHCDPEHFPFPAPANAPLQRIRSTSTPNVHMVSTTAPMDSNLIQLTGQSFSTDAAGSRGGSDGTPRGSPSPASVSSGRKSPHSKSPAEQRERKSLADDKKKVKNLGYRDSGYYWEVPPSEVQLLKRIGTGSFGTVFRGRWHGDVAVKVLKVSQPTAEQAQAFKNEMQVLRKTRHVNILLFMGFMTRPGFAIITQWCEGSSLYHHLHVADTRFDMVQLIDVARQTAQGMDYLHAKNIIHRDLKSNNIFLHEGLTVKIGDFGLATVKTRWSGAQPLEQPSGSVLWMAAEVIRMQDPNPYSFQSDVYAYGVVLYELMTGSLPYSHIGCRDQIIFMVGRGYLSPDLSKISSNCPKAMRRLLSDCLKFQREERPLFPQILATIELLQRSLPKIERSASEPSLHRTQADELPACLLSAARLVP

B-Raf V600E = B-Raf V600E (Homo sapiens, UniProt P15056, V600E); experiment: Kinase activity assay, B-Raf V600E; type: biochemical; conditions: read-out: activity toward kinase B-Raf V600E, IC50
Fms = Fms (Homo sapiens, UniProt P07333); experiment: Kinase activity assay, Fms
MAP4K4 = MAP4K4 (Homo sapiens, UniProt O95819); experiment: Kinase activity assay, MAP4K4
TEC = biological target: T2, TEC (Homo sapiens, UniProt P42680); experiment: Kinase activity assay, TEC
T2 sequence (P42680 1-631): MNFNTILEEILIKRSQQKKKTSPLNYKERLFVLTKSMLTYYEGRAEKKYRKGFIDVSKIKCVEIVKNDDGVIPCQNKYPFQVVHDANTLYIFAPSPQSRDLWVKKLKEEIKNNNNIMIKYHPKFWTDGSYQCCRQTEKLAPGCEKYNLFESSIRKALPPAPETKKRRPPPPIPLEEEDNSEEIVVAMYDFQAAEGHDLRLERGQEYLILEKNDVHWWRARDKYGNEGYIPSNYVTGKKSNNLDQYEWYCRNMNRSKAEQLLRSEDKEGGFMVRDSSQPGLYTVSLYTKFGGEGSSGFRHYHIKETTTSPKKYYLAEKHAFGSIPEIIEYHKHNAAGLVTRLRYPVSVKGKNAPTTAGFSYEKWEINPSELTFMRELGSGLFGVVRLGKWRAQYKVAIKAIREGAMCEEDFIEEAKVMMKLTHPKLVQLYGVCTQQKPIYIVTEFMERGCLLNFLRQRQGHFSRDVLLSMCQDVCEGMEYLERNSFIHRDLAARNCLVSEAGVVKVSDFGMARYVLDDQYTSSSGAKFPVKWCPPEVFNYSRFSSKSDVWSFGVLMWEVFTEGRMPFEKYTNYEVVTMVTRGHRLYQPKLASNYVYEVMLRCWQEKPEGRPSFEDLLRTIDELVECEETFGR

Btk = Btk (Homo sapiens, UniProt Q06187); experiment: Kinase activity assay, Btk
Kit = Kit (Homo sapiens, UniProt P10721); experiment: Kinase activity assay, Kit

Measured: IC50

Sequence of Flt1 (P17948 27-1338): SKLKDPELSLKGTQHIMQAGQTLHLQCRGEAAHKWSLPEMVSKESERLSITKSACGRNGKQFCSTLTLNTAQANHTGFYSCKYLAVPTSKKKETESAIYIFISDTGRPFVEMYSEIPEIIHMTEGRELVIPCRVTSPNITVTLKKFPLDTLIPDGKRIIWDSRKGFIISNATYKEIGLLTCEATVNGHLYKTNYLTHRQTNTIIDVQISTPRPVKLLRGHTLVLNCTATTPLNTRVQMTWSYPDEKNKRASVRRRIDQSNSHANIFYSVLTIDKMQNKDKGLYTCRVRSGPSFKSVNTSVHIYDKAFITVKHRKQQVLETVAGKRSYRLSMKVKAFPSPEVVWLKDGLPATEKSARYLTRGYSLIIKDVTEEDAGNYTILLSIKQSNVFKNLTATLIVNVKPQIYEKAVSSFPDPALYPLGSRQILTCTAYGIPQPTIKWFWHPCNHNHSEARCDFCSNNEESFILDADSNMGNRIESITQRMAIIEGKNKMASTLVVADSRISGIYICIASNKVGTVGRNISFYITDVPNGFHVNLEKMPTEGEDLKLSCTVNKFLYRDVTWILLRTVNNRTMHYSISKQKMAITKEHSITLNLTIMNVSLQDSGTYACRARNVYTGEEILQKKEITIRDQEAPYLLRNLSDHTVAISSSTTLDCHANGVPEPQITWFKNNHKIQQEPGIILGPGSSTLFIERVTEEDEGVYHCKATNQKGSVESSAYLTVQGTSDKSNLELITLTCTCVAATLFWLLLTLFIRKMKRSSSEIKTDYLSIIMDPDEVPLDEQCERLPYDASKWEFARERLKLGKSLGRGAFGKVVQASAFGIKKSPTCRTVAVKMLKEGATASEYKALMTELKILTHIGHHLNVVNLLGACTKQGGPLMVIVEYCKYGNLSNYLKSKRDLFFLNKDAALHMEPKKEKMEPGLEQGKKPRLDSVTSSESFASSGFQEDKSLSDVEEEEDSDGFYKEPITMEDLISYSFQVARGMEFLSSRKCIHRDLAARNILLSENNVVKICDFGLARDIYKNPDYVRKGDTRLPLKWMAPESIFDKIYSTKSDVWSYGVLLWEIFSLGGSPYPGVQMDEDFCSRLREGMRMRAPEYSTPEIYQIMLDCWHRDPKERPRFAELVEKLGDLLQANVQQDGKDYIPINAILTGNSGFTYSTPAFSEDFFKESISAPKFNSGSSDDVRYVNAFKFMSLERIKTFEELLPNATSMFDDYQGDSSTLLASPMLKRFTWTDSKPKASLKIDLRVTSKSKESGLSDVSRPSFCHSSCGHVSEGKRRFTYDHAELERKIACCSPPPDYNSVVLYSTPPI
Sequence of B-Raf V600E (P15056 whole entry V600E): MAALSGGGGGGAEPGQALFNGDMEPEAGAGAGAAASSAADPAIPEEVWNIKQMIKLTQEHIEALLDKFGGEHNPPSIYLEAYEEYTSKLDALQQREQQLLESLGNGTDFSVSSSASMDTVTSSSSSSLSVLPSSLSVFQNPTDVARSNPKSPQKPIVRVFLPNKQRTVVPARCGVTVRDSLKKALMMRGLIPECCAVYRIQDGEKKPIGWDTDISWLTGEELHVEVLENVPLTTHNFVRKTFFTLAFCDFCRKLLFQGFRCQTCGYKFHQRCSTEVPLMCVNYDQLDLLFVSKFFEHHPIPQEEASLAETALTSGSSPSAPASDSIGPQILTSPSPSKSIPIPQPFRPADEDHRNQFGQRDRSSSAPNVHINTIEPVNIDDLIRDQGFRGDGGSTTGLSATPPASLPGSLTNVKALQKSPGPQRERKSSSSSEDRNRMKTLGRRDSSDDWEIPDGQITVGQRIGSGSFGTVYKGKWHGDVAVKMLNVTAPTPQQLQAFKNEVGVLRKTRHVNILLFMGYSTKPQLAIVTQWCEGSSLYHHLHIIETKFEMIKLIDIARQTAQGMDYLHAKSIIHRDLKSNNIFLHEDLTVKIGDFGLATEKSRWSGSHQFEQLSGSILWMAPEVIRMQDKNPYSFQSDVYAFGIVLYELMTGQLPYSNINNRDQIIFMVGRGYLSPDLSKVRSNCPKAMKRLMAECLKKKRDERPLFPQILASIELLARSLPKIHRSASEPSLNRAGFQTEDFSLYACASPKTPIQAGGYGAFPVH
Sequence of Fms (P07333 20-972): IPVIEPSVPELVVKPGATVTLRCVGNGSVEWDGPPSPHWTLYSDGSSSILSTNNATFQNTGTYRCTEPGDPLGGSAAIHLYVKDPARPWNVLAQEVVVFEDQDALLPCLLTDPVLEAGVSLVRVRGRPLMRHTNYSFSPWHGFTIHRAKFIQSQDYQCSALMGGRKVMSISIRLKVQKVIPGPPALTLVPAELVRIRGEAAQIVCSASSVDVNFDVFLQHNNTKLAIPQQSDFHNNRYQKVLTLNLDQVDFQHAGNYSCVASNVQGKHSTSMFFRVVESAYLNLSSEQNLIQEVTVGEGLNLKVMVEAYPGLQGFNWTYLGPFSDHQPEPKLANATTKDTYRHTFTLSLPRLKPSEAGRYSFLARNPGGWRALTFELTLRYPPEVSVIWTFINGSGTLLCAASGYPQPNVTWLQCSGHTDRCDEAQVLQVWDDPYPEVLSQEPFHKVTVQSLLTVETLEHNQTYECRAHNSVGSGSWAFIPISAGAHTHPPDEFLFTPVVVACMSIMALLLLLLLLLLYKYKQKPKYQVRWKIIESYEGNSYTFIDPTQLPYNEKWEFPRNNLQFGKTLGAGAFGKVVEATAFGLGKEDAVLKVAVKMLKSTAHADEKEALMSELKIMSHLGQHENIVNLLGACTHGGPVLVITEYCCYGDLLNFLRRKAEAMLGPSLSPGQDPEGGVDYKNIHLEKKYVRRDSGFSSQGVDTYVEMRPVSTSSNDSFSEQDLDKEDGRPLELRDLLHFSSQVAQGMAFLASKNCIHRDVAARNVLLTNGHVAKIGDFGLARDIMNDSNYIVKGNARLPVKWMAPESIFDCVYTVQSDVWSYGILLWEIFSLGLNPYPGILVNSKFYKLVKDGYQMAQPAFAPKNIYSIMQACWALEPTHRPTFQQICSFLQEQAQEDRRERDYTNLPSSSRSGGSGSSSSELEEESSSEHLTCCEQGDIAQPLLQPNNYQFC
Sequence of B-Raf (P15056 whole entry): as the sequence (P15056 whole entry V600E) above, with E600V counted along it
Sequence of Kdr (P35968 20-1356): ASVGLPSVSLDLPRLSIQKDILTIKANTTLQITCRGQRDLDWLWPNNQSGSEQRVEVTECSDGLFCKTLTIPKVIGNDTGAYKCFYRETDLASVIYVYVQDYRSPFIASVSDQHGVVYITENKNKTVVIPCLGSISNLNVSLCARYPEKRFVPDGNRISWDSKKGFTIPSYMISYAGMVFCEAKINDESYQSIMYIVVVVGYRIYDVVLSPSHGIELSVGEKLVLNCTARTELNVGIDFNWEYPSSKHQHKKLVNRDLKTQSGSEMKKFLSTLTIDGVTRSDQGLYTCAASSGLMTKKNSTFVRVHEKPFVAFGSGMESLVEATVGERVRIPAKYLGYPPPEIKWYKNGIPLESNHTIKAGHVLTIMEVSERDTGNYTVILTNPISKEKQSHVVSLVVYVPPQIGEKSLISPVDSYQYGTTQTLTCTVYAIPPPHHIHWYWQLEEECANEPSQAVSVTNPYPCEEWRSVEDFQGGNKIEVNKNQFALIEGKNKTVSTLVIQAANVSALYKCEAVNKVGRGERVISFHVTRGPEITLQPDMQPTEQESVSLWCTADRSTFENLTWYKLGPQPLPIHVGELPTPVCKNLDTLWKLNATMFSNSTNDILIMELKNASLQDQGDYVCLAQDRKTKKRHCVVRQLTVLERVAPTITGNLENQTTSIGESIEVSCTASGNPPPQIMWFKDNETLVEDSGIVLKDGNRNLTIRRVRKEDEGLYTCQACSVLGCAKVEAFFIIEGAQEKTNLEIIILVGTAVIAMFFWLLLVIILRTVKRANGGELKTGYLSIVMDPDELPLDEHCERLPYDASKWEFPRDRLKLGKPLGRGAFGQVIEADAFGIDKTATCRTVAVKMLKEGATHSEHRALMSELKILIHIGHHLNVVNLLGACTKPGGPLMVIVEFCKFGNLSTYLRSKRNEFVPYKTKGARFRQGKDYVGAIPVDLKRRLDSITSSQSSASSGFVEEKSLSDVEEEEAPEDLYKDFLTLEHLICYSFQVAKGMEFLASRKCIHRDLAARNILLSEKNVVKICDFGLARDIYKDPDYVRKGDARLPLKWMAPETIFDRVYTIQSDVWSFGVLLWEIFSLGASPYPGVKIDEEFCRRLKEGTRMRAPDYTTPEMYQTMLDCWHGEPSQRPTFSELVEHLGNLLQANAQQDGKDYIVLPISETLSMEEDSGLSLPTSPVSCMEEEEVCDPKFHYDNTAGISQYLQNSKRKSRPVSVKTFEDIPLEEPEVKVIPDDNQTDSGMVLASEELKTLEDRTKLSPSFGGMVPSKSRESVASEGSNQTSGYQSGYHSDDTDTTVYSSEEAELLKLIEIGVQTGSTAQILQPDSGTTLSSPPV
Sequence of Src (P12931 whole entry): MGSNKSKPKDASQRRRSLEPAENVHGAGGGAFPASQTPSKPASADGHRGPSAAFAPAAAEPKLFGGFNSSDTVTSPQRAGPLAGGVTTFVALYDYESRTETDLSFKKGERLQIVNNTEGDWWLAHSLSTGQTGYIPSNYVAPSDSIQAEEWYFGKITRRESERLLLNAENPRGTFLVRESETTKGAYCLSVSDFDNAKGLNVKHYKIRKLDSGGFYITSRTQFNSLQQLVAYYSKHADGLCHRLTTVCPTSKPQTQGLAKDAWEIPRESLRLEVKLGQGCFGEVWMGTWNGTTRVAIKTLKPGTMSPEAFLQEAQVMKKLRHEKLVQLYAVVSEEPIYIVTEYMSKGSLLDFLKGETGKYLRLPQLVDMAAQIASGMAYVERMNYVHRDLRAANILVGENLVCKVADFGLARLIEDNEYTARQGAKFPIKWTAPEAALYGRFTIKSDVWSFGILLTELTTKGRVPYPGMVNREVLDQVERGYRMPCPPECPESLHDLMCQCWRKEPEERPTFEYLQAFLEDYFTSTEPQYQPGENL

CCCS(=O)(=O)Nc1ccc(F)c(C(=O)c2c[nH]c3nccc(OC)c23)c1F [P-2210, Propane-1-sulfonic acid [2,4-difluoro-3-(4-methoxy-1H-pyrrolo[2,3-b]pyridine-3-carbonyl)-phenyl]-amide]
≤ 10 µM: Flt1 | C-Raf | B-Raf | Src | Kdr | A-Raf | B-Raf V600E

Cn1cc(-c2cnc3[nH]cc(C(=O)c4cc(NS(=O)(=O)C5CCCCC5)ccc4F)c3c2)cn1 [P-2434, Cyclohexanesulfonic acid {4-fluoro-3-[5-(1-methyl-1H-pyrazol-4-yl)-1H-pyrrolo[2,3-b]pyridine-3-carbonyl]-phenyl}-amide]
not listed: A-Raf
≤ 10 µM: all other assays above

CCCS(=O)(=O)Nc1ccc(F)c(C(=O)c2c[nH]c3ncc(-c4cnc(N(C)C)nc4)cc23)c1F [P-2196, Propane-1-sulfonic acid {3-[5-(2-dimethylamino-pyrimidin-5-yl)-1H-pyrrolo[2,3-b]pyridine-3-carbonyl]-2,4-difluoro-phenyl}-amide]
≤ 10 µM: Flt1 | C-Raf | B-Raf | Src | Kdr | A-Raf | B-Raf V600E

Cn1cc(-c2cnc3[nH]cc(C(=O)c4cccc(NS(=O)(=O)C5CCCCC5)c4)c3c2)cn1 [P-2457, Cyclohexanesulfonic acid {3-[5-(1-methyl-1H-pyrazol-4-yl)-1H-pyrrolo[2,3-b]pyridine-3-carbonyl]-phenyl}-amide]
not listed: C-Raf | B-Raf | A-Raf
≤ 10 µM: all other assays above

CCCS(=O)(=O)Nc1ccc(F)c(C(=O)c2c[nH]c3ncc(-c4ccc(C(=O)NCC)nc4)cc23)c1F [P-2151, 5-{3-[2,6-Difluoro-3-(propane-1-sulfonylamino)-benzoyl]-1H-pyrrolo[2,3-b]pyridin-5-yl}-pyridine-2-carboxylic acid ethylamide]
not listed: A-Raf | MAP4K4 | TEC | Btk
≤ 10 µM: all other assays above

Cn1cc(-c2cnc3[nH]cc(C(=O)c4c(F)ccc(NS(=O)(=O)c5cccc(OC(F)F)c5)c4Cl)c3c2)cn1 [P-2099, N-{2-Chloro-4-fluoro-3-[5-(1-methyl-1H-pyrazol-4-yl)-1H-pyrrolo[2,3-b]pyridine-3-carbonyl]-phenyl}-3-difluoromethoxy-benzenesulfonamide]
not listed: C-Raf | Src | A-Raf
≤ 10 µM: all other assays above

CCCS(=O)(=O)Nc1ccc(F)c(C(=O)c2c[nH]c3ncc(-c4cnc(OC)nc4OC)cc23)c1F [P-2199, Propane-1-sulfonic acid {3-[5-(2,4-dimethoxy-pyrimidin-5-yl)-1H-pyrrolo[2,3-b]pyridine-3-carbonyl]-2,4-difluoro-phenyl}-amide]
not listed: Src | A-Raf
≤ 10 µM: all other assays above

CC(C)CS(=O)(=O)Nc1ccc(F)c(C(=O)c2c[nH]c3ncc(-c4cnn(C)c4)cc23)c1F [P-2299, 2-Methyl-propane-1-sulfonic acid {2,4-difluoro-3-[5-(1-methyl-1H-pyrazol-4-yl)-1H-pyrrolo[2,3-b]pyridine-3-carbonyl]-phenyl}-amide]
not listed: C-Raf | A-Raf | MAP4K4
≤ 10 µM: all other assays above

CCCCS(=O)(=O)Nc1ccc(F)c(C(=O)c2c[nH]c3ncc(-c4cnn(C)c4)cc23)c1Cl [P-2430, Butane-1-sulfonic acid {2-chloro-4-fluoro-3-[5-(1-methyl-1H-pyrazol-4-yl)-1H-pyrrolo[2,3-b]pyridine-3-carbonyl]-phenyl}-amide]
not listed: Src | A-Raf | Btk
≤ 10 µM: all other assays above

CCCS(=O)(=O)Nc1ccc(F)c(C(=O)c2c[nH]c3ncc(-c4ccc(C)nc4)cc23)c1F [P-2213, Propane-1-sulfonic acid {2,4-difluoro-3-[5-(6-methyl-pyridin-3-yl)-1H-pyrrolo[2,3-b]pyridine-3-carbonyl]-phenyl}-amide]
not listed: A-Raf | MAP4K4 | TEC | Btk
≤ 10 µM: all other assays above

CCCS(=O)(=O)Nc1ccc(F)c(C(=O)c2c[nH]c3ncc(-c4ccc(OCCCN(CC)CC)nc4)cc23)c1F [P-2216, Propane-1-sulfonic acid (3-{5-[6-(3-diethylamino-propoxy)-pyridin-3-yl]-1H-pyrrolo[2,3-b]pyridine-3-carbonyl}-2,4-difluoro-phenyl)-amide]
not listed: A-Raf | MAP4K4 | TEC | Btk
≤ 10 µM: all other assays above

CCCS(=O)(=O)Nc1ccc(F)c(C(=O)c2c[nH]c3ncc(-c4ccc(OCCO)nc4)cc23)c1F [P-2215, Propane-1-sulfonic acid (2,4-difluoro-3-{5-[6-(2-hydroxy-ethoxy)-pyridin-3-yl]-1H-pyrrolo[2,3-b]pyridine-3-carbonyl}-phenyl)-amide]
not listed: A-Raf | TEC | Btk
≤ 10 µM: all other assays above

Cn1cc(-c2cnc3[nH]cc(C(=O)c4cc(NS(=O)(=O)c5ccc(F)cc5)ccc4F)c3c2)cn1 [P-2100, 4-Fluoro-N-{4-fluoro-3-[5-(1-methyl-1H-pyrazol-4-yl)-1H-pyrrolo[2,3-b]pyridine-3-carbonyl]-phenyl}-benzenesulfonamide]
≤ 10 µM: Fms | Flt1 | Src | Kdr | Btk | Kit | B-Raf V600E

CCCS(=O)(=O)Nc1ccc(F)c(C(=O)c2c[nH]c3ncc(C(=O)NC4CC4)cc23)c1F [P-2201, 3-[2,6-Difluoro-3-(propane-1-sulfonylamino)-benzoyl]-1H-pyrrolo[2,3-b]pyridine-5-carboxylic acid cyclopropylamide]
≤ 10 µM: Fms | Flt1 | C-Raf | B-Raf | Kdr | Kit | B-Raf V600E
